From patent publication US5036059A, “1,4-Dihydropyridine-3-carboxylate derivatives” (Nippon Shinyaku Company, Limited, priority 1984, dated 1991)

Columns and labels:
[1] = system: rats (with normal blood pressure); assay: Hypotensive action, mean blood pressure of femoral artery in unanesthetized normotensive rats, oral; assay type: in vivo; settings: Rattus norvegicus, read-out: % Decreases in Mean Blood Pressure [at peak effect]
Protocol: Blood pressure of femoral artery of rats (with normal blood pressure) under unanesthetized condition was measured directly using a pressure tranducer.
The present invention compounds were given orally at doses of 1, 3 and 10 mg/kg, and changes in blood pressure were continuously recorded. Percent decreases of mean blood pressure at the peak effect were calculated. The maximum changes in mean blood pressure (%) were shown as "hypotensive action" (Table 2).
(§1) Hypotensive action of diltiazem (which is a known hypotensive drug) measured by the same method at the doses of 3, 10 and 30 mg/kg were 0, 11.2 and 33.0%, respectively. Hypotensive action of the compound of Example 4 which is one of the most representative compounds of this invention was tested using spontaneously hypertensive rats and was compared with those of Nifedipine and Diltiazem hydrochloride. The method applied was that the drugs were orally given to the rats of which systolic arterial blood pressure were higher than 180 mmHg when it was measured plethysmographically using tail arteries. (Table 3)

[2] = system: spontaneously hypertensive rats; assay: Hypotensive action in spontaneously hypertensive rats, systolic arterial blood pressure by tail plethysmography, oral; assay type: in vivo
Protocol: as §1
Doses in mg/kg (p.o.) are as follows: *0.3 (1.0); **1.0 (3.0); ***30.

[3] = 0.5 hr after administration, 1.0 mg/kg p.o.
[4] = 1 hr after administration, 1.0 mg/kg p.o.
[5] = 2 hr after administration, 1.0 mg/kg p.o.
[6] = 3 hr after administration, 1.0 mg/kg p.o.
[7] = 5 hr after administration, 1.0 mg/kg p.o.
[8] = 8 hr after administration, 1.0 mg/kg p.o.
[9] = 12 hr after administration, 1.0 mg/kg p.o.
[10] = before administration, 1.0 mg/kg p.o.

## COC(=O)C1=C(C)NC(C)=C(P2(=O)OCCCO2)C1c1ccccc1[N+](=O)[O-] (stereo not shown) [Example 4, Methyl 2,6-dimethyl-4-(2-nitrophenyl)-5-(2-oxo-1,3,2-dioxaphosphorinan-2-yl)-1,4-dihydropyridine-3-carboxylate]
[1]; 1 mg/kg oral
  inhibition in vivo at 1 mg/kg: 42.6%
[1]; 3 mg/kg oral
  inhibition in vivo at 3 mg/kg: 39%
[1]; 10 mg/kg oral
  inhibition in vivo at 10 mg/kg: 41.9%
[2]; 0.5 hr after administration, 0.3 mg/kg p.o.
  systolic arterial blood pressure: 126.0 ± 3.9
[2]; [3]
  systolic arterial blood pressure: 87.7 ± 4.9
[2]; 1 hr after administration, 0.3 mg/kg p.o.
  systolic arterial blood pressure: 124.0 ± 3.3
[2]; [4]
  systolic arterial blood pressure: 90.2 ± 6.3
[2]; 2 hr after administration, 0.3 mg/kg p.o.
  systolic arterial blood pressure: 134.2 ± 4.3
[2]; [5]
  systolic arterial blood pressure: 103.2 ± 7.3
[2]; 3 hr after administration, 0.3 mg/kg p.o.
  systolic arterial blood pressure: 152.5 ± 4.0
[2]; [6]
  systolic arterial blood pressure: 133.3 ± 5.3
[2]; 5 hr after administration, 0.3 mg/kg p.o.
  systolic arterial blood pressure: 156.8 ± 8.3
[2]; [7]
  systolic arterial blood pressure: 150.7 ± 7.7
[2]; 8 hr after administration, 0.3 mg/kg p.o.
  systolic arterial blood pressure: 158.3 ± 7.2
[2]; [8]
  systolic arterial blood pressure: 152.8 ± 6.5
[2]; 12 hr after administration, 0.3 mg/kg p.o.
  systolic arterial blood pressure: 170.7 ± 5.4
[2]; [9]
  systolic arterial blood pressure: 165.3 ± 6.1
[2]; 24 hr after administration, 0.3 mg/kg p.o.
  systolic arterial blood pressure: 195.3 ± 5.9
[2]; 24 hr after administration, 1.0 mg/kg p.o.
  systolic arterial blood pressure: 187.7 ± 7.5
[2]; before administration, 0.3 mg/kg p.o.
  systolic arterial blood pressure: 185.2 ± 5.4
[2]; [10]
  systolic arterial blood pressure: 193.0 ± 6.5

## COC(=O)C1=C(C)NC(C)=C(C(=O)OC)C1c1ccccc1[N+](=O)[O-] [Nifedipine, dimethyl 2,6-dimethyl-4-(2-nitrophenyl)-1,4-dihydropyridine-3,5-dicarboxylate]
[2]; [3]
  systolic arterial blood pressure: 139.3 ± 6.9
[2]; 0.5 hr after administration, 3.0 mg/kg p.o.
  systolic arterial blood pressure: 112.8 ± 6.0
[2]; [4]
  systolic arterial blood pressure: 161.3 ± 4.1
[2]; 1 hr after administration, 3.0 mg/kg p.o.
  systolic arterial blood pressure: 125.8 ± 4.4
[2]; [5]
  systolic arterial blood pressure: 183.5 ± 10.0
[2]; 2 hr after administration, 3.0 mg/kg p.o.
  systolic arterial blood pressure: 148.7 ± 9.9
[2]; [6]
  systolic arterial blood pressure: 188.3 ± 5.8
[2]; 3 hr after administration, 3.0 mg/kg p.o.
  systolic arterial blood pressure: 176.8 ± 2.6
[2]; [7]
  systolic arterial blood pressure: 187.2 ± 5.3
[2]; 5 hr after administration, 3.0 mg/kg p.o.
  systolic arterial blood pressure: 183.8 ± 6.0
[2]; [8]
  systolic arterial blood pressure: 190.9 ± 4.8
[2]; 8 hr after administration, 3.0 mg/kg p.o.
  systolic arterial blood pressure: 188.5 ± 2.9
[2]; [9]
  systolic arterial blood pressure: 190.3 ± 5.5
[2]; 12 hr after administration, 3.0 mg/kg p.o.
  systolic arterial blood pressure: 190.0 ± 7.0
[2]; [10]
  systolic arterial blood pressure: 194.8 ± 2.1
[2]; before administration, 3.0 mg/kg p.o.
  systolic arterial blood pressure: 189.0 ± 5.1
